Data set [1] is described as follows: Storage stability of staining compound solution in DMSO. The data set is classed as physicochemical. As to conditions: 10 ng/mL in DMSO, closed glass container, normal temperature, 1 month; rate of change of absorbance and fluorescence intensity. The method in brief:
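Compounds held as 10 ng/mL DMSO solutions in closed glass containers at normal temperature for 1 month. Rates of change in absorbance and fluorescence intensity at a given wavelength versus start were scored: +++ <5%, ++ 5–15%, − >15%.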

Data set [2] has as its system Zebrafish juveniles. Put plainly: In vivo labelling of Zebrafish juveniles with probe for biological specimen. Set-up: key to Staining property: +++: stained; −: no stained; key to Fluorescence sensitivity: +++: strongly observed; ++: moderately observed; +: weakly observed; −: no stained. The following applies: 1 hour; for Site(s) to be labelled: 10 ng/mL in water, stereoscopic microscope; for Fluorescence sensitivity / Staining property: 10 ng/mL; for Fluorescence sensitivity: fluorescence intensity visually evaluated; for Staining property: visually evaluated. The method in brief: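 Five zebrafish juveniles were immersed in distilled water containing staining compound at 10 ng/mL (DMSO solution) for 1 hour. They were then washed three times with Egg Water, immobilised in 3% methylcellulose and imaged by stereomicroscope. Staining and fluorescence intensity were scored visually on a +++ to − scale.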

Data set [3] can be described thus: Excitation and fluorescence emission wavelength measurement. Set-up: Stokes shift (λem − λex): unit not given here. The following applies: aqueous solution: 10 mg/mL solution in DMSO diluted 500-fold with purified water. In kind it is physicochemical. As for the experimental part: It should be noted that the excitation wavelength and the fluorescence emission wavelength of the staining compound were determined by measuring an aqueous solution, which had been obtained by diluting 500-fold a 10 mg/mL solution of the staining compound in DMSO with purified water, with a fluorescence spectrophotometer FL 4500 manufactured by Hitachi High-Technologies Corporation.

From patent US9801960B2, “Probe for a biological specimen and labelling method and screening method using the probe” (CANON KABUSHIKI KAISHA, priority 2008, dated 2017) come the findings set out here.

Each structure is given as a SMILES string.

Regarding `O=C(O)CN1C(=O)/C(=C\c2ccc3c(c2)C2CCCC2N3Cc2ccccc2)SC1=S` (centres unmarked) [Dye 3], the Storage stability result in data set [1] was “+++ (rates of change of the absorbance and the fluorescence intensity are less than 5%, and thus, the storage stability is highly excellent)”. For the same compound, in data set [2], the “Site(s) to be labelled” value was “blood vessel, gallbladder, and gastrointestinal”; the Fluorescence sensitivity result was “+++”; the Staining property result is “+++”. Also, in data set [3], the Excitation wavelength λex is 525 nm, the Fluorescence emission wavelength λem came out at 607 nm and the “Stokes shift (λem − λex)” value is 82.
With `N#C/C(=C\c1cc(Br)c2c(c1)C1CCCC1N2Cc1cccc(Br)c1)C(=O)O` (centres unmarked) [Dye 25], the Storage stability result in data set [1] is “+++ (rates of change of the absorbance and the fluorescence intensity are less than 5%, and thus, the storage stability is highly excellent)”. In data set [2], the “Site(s) to be labelled” value is “gastrointestinal tract”, the Fluorescence sensitivity entry was “++” and the Staining property result is “+++”. Besides, in data set [3], the Excitation wavelength λex is 394 nm, the Fluorescence emission wavelength λem was found to be 554 nm and the “Stokes shift (λem − λex)” value is recorded as 160.
On to `O=C(O)C1=NN(c2ccccc2)C(=O)/C1=C\c1ccc2c(c1)C1CCCC1N2c1ccc(Cc2ccccc2)cc1` (centres unmarked) [Dye 50], for which the Storage stability result in data set [1] was “++ (rates of change of the absorbance and fluorescence intensity are 5 to 15%, and thus, the storage stability is excellent)”. In data set [2], the Fluorescence sensitivity entry is “+++” and the Staining property entry is on record as “+++”. In data set [3], the Excitation wavelength λex was determined as 481 nm, the Fluorescence emission wavelength λem amounted to 586 nm and the “Stokes shift (λem − λex)” value came to 105.
Turning to `CCN1c2ccc(/C=C/c3sc4ccccc4[n+]3CC(=O)O)cc2C2CCCC21` (centres unmarked) [Dye 124], in data set [1], the Storage stability result is “+++ (rates of change of the absorbance and the fluorescence intensity are less than 5%, and thus, the storage stability is highly excellent)”. Besides, in data set [2], the “Site(s) to be labelled” value is “nose”, the Fluorescence sensitivity entry is recorded as “+++” and the Staining property entry is “+++”. Also, in data set [3], the Excitation wavelength λex stood at 605 nm, the Fluorescence emission wavelength λem came to 618 nm and the “Stokes shift (λem − λex)” value was 13.
For the compound `COc1ccc(N2c3ccc(/C=C/c4sc5ccccc5[n+]4CC(=O)O)cc3C3CCCC32)cc1` (centres unmarked) [Dye 31], the Storage stability entry in data set [1] is “+++ (rates of change of the absorbance and the fluorescence intensity are less than 5%, and thus, the storage stability is highly excellent)”. In data set [2], the “Site(s) to be labelled” value is on record as “nose”, the Fluorescence sensitivity entry is given as “+++” and the Staining property entry is given as “+++”. For the same compound, in data set [3], the Excitation wavelength λex was 560 nm, the Fluorescence emission wavelength λem stood at 677 nm and the “Stokes shift (λem − λex)” value is 117.
Consider `CCCCN1C(=O)/C(=c2\s/c(=C/c3ccc4c(c3)C3CCCC3N4c3ccc(OC)cc3)c(=O)n2CC(=O)OCC)SC1=S` (centres unmarked) [Dye 62], for which, in data set [1], the Storage stability result is “+++ (rates of change of the absorbance and the fluorescence intensity are less than 5%, and thus, the storage stability is highly excellent)”. Besides, in data set [2], the “Site(s) to be labelled” value is given as “gastrointestinal tract”, the Fluorescence sensitivity entry is “+++” and the Staining property result was “+++”. Also, in data set [3], the Excitation wavelength λex was 450 nm, the Fluorescence emission wavelength λem amounted to 527 nm and the “Stokes shift (λem − λex)” value turned out to be 77.
Turning to `COc1ccc2cc(N3c4ccc(/C=C5\C(=O)N(c6ccccc6)N=C5C(=O)O)cc4C4CCCC43)ccc2c1` (centres unmarked) [Dye 14], in data set [1], the Storage stability entry was “+++ (rates of change of the absorbance and the fluorescence intensity are less than 5%, and thus, the storage stability is highly excellent)”. In addition, in data set [2], the “Site(s) to be labelled” value is reported as “gallbladder”, the Fluorescence sensitivity entry was “++” and the Staining property result is on record as “+++”. Besides, in data set [3], the Excitation wavelength λex is 610 nm, the Fluorescence emission wavelength λem came to 675 nm and the “Stokes shift (λem − λex)” value stood at 65.
`CCN1C(=O)/C(=c2\s/c(=C/c3ccc4c(c3)C3CCCC3N4Cc3ccccc3)c(=O)n2CC(=O)O)SC1=S` (centres unmarked) [Dye 40]: the Storage stability entry in data set [1] is “+++ (rates of change of the absorbance and the fluorescence intensity are less than 5%, and thus, the storage stability is highly excellent)”. In addition, in data set [2], the “Site(s) to be labelled” value is “blood vessel, liver, and gastrointestinal tract”; the Fluorescence sensitivity entry is reported as “+++”; the Staining property result is on record as “+++”. In data set [3], the Excitation wavelength λex was determined as 576 nm, the Fluorescence emission wavelength λem was 657 nm and the “Stokes shift (λem − λex)” value was 81.
Turning to `O=C(O)CN1C(=O)/C(=C2C=C/C(=C\c3ccc4c(c3)C3CCCC3N4c3ccccc3)C\2)SC1=S` (centres unmarked) [Dye 140], the Storage stability result in data set [1] is “+++ (rates of change of the absorbance and the fluorescence intensity are less than 5%, and thus, the storage stability is highly excellent)”. In data set [2], the “Site(s) to be labelled” value is “gastrointestinal tract”, the Fluorescence sensitivity entry is listed as “+++” and the Staining property entry is listed as “+++”. Also, in data set [3], the Excitation wavelength λex was found to be 510 nm, the Fluorescence emission wavelength λem came out at 650 nm and the “Stokes shift (λem − λex)” value was determined as 140.
Consider `N#C/C(=C\c1ccc2c(c1)C1CCCC1N2c1ccc(C=C(c2ccccc2)c2ccccc2)cc1)C(=O)O` (centres unmarked) [Dye 108], for which the Storage stability result in data set [1] was “+++ (rates of change of the absorbance and the fluorescence intensity are less than 5%, and thus, the storage stability is highly excellent)”. Also, in data set [2], the Fluorescence sensitivity result is recorded as “+++” and the Staining property entry is “+++”. Also, in data set [3], the Excitation wavelength λex came to 479 nm, the Fluorescence emission wavelength λem came out at 600 nm and the “Stokes shift (λem − λex)” value is listed as 121.
On to `CCn1c(=O)/c(=C\c2ccc3c(c2)C2CCCC2N3c2ccccc2)s/c1=C1/SC(=S)N(CC(=O)O)C1=O` (centres unmarked) [Dye 137], for which the Storage stability entry in data set [1] was “+++ (rates of change of the absorbance and the fluorescence intensity are less than 5%, and thus, the storage stability is highly excellent)”. Besides, in data set [2], the “Site(s) to be labelled” value is “gallbladder and gastrointestinal tract”; the Fluorescence sensitivity result was “+++”; the Staining property result is “+++”. Besides, in data set [3], the Excitation wavelength λex was found to be 590 nm, the Fluorescence emission wavelength λem is 700 nm and the “Stokes shift (λem − λex)” value worked out at 110.
Turning to `COc1ccc(N2c3ccc(/C=c4/s/c(=C5/SC(=S)N(Cc6ccccc6)C5=O)n(CC(=O)O)c4=O)cc3C3CCCC32)cc1` (centres unmarked) [Dye 67], in data set [1], the Storage stability entry is “+++ (rates of change of the absorbance and the fluorescence intensity are less than 5%, and thus, the storage stability is highly excellent)”. Moreover, in data set [2], the “Site(s) to be labelled” value is on record as “blood vessel”, the Fluorescence sensitivity result is listed as “+++” and the Staining property result is “+++”. For the same compound, in data set [3], the Excitation wavelength λex was found to be 568 nm, the Fluorescence emission wavelength λem was 712 nm and the “Stokes shift (λem − λex)” value came out at 144.
As for `COc1ccc(N2c3ccc(/C=C/C4=[N+](CCC(=O)O)c5ccccc5C4(C)C)cc3C3CCCC32)cc1` (centres unmarked) [Dye 76], in data set [1], the Storage stability result is “+++ (rates of change of the absorbance and the fluorescence intensity are less than 5%, and thus, the storage stability is highly excellent)”. For the same compound, in data set [2], the “Site(s) to be labelled” value is “gastrointestinal tract and lower abdomen”; the Fluorescence sensitivity entry is on record as “+++”; the Staining property result is “+++”. In data set [3], the Excitation wavelength λex came out at 592 nm, the Fluorescence emission wavelength λem is 671 nm and the “Stokes shift (λem − λex)” value was 79.
For `CC1=NN(c2ccccc2)C(=O)/C1=C\c1cc(Br)c2c(c1)C1CCCC1N2c1ccc(Br)cc1` (centres unmarked) [Dye 22], the Storage stability entry in data set [1] is “++ (rates of change of the absorbance and fluorescence intensity are 5 to 15%, and thus, the storage stability is excellent)”. In addition, in data set [2], the “Site(s) to be labelled” value was “liver and gastrointestinal tract”; the Fluorescence sensitivity result was “+++”; the Staining property entry is reported as “+++”. Also, in data set [3], the Excitation wavelength λex is 570 nm, the Fluorescence emission wavelength λem was found to be 598 nm and the “Stokes shift (λem − λex)” value was found to be 28.
In the case of `O=C(O)CCN1C(=O)/C(=C\c2ccc3c(c2)C2CCCC2N3c2ccccc2)SC1=S` (centres unmarked) [Dye 130], the Storage stability result in data set [1] is “+++ (rates of change of the absorbance and the fluorescence intensity are less than 5%, and thus, the storage stability is highly excellent)”. Moreover, in data set [2], the “Site(s) to be labelled” value was “blood vessel, liver, and gastrointestinal tract”; the Fluorescence sensitivity result is “+++”; the Staining property entry is “+++”. For the same compound, in data set [3], the Excitation wavelength λex is 541 nm, the Fluorescence emission wavelength λem came to 619 nm and the “Stokes shift (λem − λex)” value was determined as 78.
Turning to `COc1ccc2cc(N3c4ccc(/C=C5/SC(=S)N(CCC(=O)O)C5=O)cc4C4CCCC43)ccc2c1` (centres unmarked) [Dye 20], in data set [1], the Storage stability result is “+++ (rates of change of the absorbance and the fluorescence intensity are less than 5%, and thus, the storage stability is highly excellent)”. Also, in data set [2], the “Site(s) to be labelled” value is “blood vessel, liver, and gastrointestinal tract”; the Fluorescence sensitivity result is on record as “+++”; the Staining property result was “+++”. In data set [3], the Excitation wavelength λex amounted to 533 nm, the Fluorescence emission wavelength λem amounted to 661 nm and the “Stokes shift (λem − λex)” value was determined as 128.
